Experimental data published in paper PMC12214158, “Structure–activity relationship of ^18F-labeled PD-L1-targeting small molecule ligands: impact of radiolabeling strategy on affinity and in vivo performance” (EJNMMI Radiopharmacy and Chemistry, 2025).

Experiments:
[1] = Proteolytic stability in human serum, radio-HPLC; assay type: in vitro ADME; conditions: 37 °C, all time points up to 4 h
Experimental: With both ^18F-ligands in hand, distribution coefficients (log D7.4) were determined using the shake flask method with n-octanol and PBS. The introduction of three hydrophilizing units led to log D7.4 values of − 2.54 ± 0.02 for [^18F]F-2 and − 2.68 ± 0.08 for [^18F]F-3, which indicates moderate hydrophilicity. Subsequently, proteolytic stability was investigated (Supplementary Fig. S68 and S69), by incubating in human serum at 37 °C for up to 4 h. Before incubation (0 h) and 0.5, 1, 2 and 4 h after incubation, an aliquot was taken, and serum proteins were precipitated. Analysis of radiotracers was performed with radio-HPLC, showing the intact radiotracers (0 h) at 7.0 ([^18F]F-2) and 7.7 min ([^18F]F-3). At all time points, radiotracers remained intact up to 99%.
Subsequently, proteolytic stability was investigated (Supplementary Fig. S70 and S71), by incubating in human serum at 37 °C for up to 4 h. Before incubation (0 h) and 0.5, 1, 2 and 4 h after incubation, an aliquot was taken, and serum proteins were precipitated. Analysis of radiotracers was performed with radio-HPLC, showing the intact radiotracers (0 h) at 7.9 (Al[^18F]F-36) and 8.1 min (Al[^18F]F-37). After 4 h, both radiotracers remained intact up to 91% and 92%, respectively.
For proteolytic stability studies, a solution of the radiolabeled compound was diluted with human serum in a ratio of 1:10. […]

[2] = target: T1, human PD-L1 (Homo sapiens, UniProt Q9NZQ7); assay: Competition binding assay against [^64Cu]Cu-1 on PC3 PD-L1 overexpressing cells; conditions: against [^64Cu]Cu-1 (30 nM), 14 dilutions 1 µM–120 pM, n = 2 from triplicates, read-out: Ki (inhibitory constant from competition binding assay)
T1 construct: expressed in transfected cells; host or cells: PC3 cells (human prostate carcinoma) transduced to overexpress human PD-L1
Experimental: Prior to competition binding experiments, cells were detached with 0.05% Trypsin–EDTA (Gibco, USA), trypsinized and counted (CASY1 cell counter, Schaerfe System, Reutlingen, Germany). Cells were then diluted in medium to ~ 320,000 cells/mL and seeded to 48 well plates (Falcon Multiwell #353078, ThermoFisher, Karlsruhe, Germany) for at least one day.
For the determination of inhibitory constant (Ki), competition binding experiments were conducted in a minimum of two independent experiments, with each data point formed from triplicates. For this purpose, all described compounds competed with a previously reported biphenyl-based PD-L1 small molecule radioligand (Krutzek et al. [2023b]).
Human PD-L1 transduced PC3 cells were grown under conditions described above. For the experiments, plates were allowed to reach room temperature followed by cooling on ice (each 15 min). 200 µL of assay buffer (PBS) replaced the culture. For each compound, total binding (TB) of the radioligand was determined, along with […] of BMS-1166 (synthesized according to reference (Guzik et al. [2017]) (dissolved in DMSO, resulting in 0.03% v/v) for estimation of nonspecific binding (NSB).
Incubation for 90 min followed, wells were then washed with ice-cold assay buffer (3 washes) and cells subjected to lysis (500 µL of 0.1 M NaOH + 1% SDS). The radioactivity of 400 µL lysate was assessed via a gamma counter (Perkin Elmer Wizard 1480). Binding to polystyrene was determined on an extra plate without any cells under identical conditions. Activity and therefore concentration of the radioligand stock solution was confirmed via 50 µL samples. Data was corrected for radioactive decay to a reference time (end of radiolabeling). The protein content of lysates from a control plate (seeded from the same cell suspension, incubated under identical conditions) was quantified using a BCA assay, and the mean value (µg/mL) was employed for this specific dataset. Via mean protein content and molar activity, final values (pmol/mg protein) were computed from the CPM measurements. Ki was fitted via a One site model (GraphPad Prism 10), using the previously determined KD for the radiolabeled compound and the actual concentration of the radioligand.

[3] = target: T2, PC3 PD-L1 cells (Homo sapiens, UniProt Q9NZQ7); assay: Real-time radioligand binding (LigandTracer) to PC3 PD-L1 cells; conditions: room temperature
T2 construct: expressed in transfected cells; host or cells: PC3 cells (human prostate carcinoma) transduced to overexpress human PD-L1
Experimental: The LigandTracer system (Ridgeview Instruments AB, Uppsala, Sweden) allows assessing the binding kinetics (association rate constant ka and dissociation rate constant kd) and therefore dissociation constant (KD) of radiolabeled compounds. For that purpose, target-positive PC3 PD-L1 cells are seeded to a quadrant of a petri dish (Thermo Scientific Nunclon Delta #150350). In our initial tests, 1.2x10^6 cells were seeded one day prior to the experiment.
The petri dish is then placed in the instrument, the culture medium removed and replaced with 3 mL CO2-independent medium (Gibco #18045088, ThermoFisher Germany). In the LigandTracer system, the dish rotates on an inclined base, with cells in medium (3 mL) located on one side (target), while no cells (background) are located on the other side. Radioactivity (counts per second) is then constantly measured for 30 seconds on either side. This allows continuous measurements of two (or more) alternating parts of the dish for bound radioactivity, with target – background indicating binding over time.
All experiments were performed at room temperature. Association of compounds was observed following incubation with two increasing concentrations of the tracer. The tracer-containing solution was then exchanged for fresh medium, to allow observation of dissociation for at least 120 min.

[4] = tested on: NMRI-nude mice bearing PC3 PD-L1 and PC3 mock tumors; assay: Small animal PET in mice bearing PC3 PD-L1 and PC3 mock tumors; assay type: in vivo; conditions: for SUVmax PC3 PD-L1 tumor / SUVmax PC3 mock tumor / Uptake (SUVmean) Bone (spine) / Uptake (SUVmean) Gall bladder / Uptake (SUVmean) Heart / Uptake (SUVmean) Liver / Uptake (SUVmean) PC3 PD-L1 tumor / Uptake (SUVmean) PC3 mock tumor / Uptake (SUVmean) Small intestine: 1–2 h p.i.; for Uptake (SUVmean) Bone (spine) / Uptake (SUVmean) Gall bladder / Uptake (SUVmean) Heart / Uptake (SUVmean) Liver / Uptake (SUVmean) PC3 PD-L1 tumor / Uptake (SUVmean) PC3 mock tumor / Uptake (SUVmean) Small intestine: mean; for transition from liver and gall bladder into the intestine: time-activity curves
Experimental: Male athymic NMRI-nude mice (Rj:NMRI-Foxn1nu, Charels River, Germany) aged 8 to 16 weeks were used to investigate pharmacokinetics and tumor uptake. For subcutaneous injection of cells, general anesthesia was induced with ~ 10% desflurane (Baxter, Deerfield, IL, USA) in 30 vol% oxygen + air at controlled 37 °C. Mice were injected with 3–5 × 10^6 PC3 PD-L1 and PC3 mock cells (in 50 µL PBS + 50 µL Matrigel, Corning, Glendale, CA, USA) into the right and left thigh, respectively. Tumor growth was monitored (3 times per week) using calipers, and animals enrolled in PET scans once tumors reached 7 mm.
Under general anesthesia, PET and X-ray computed tomography (CT) scans were conducted using a small animal PET/CT scanner (nanoScan PET/CT, Mediso, Budapest, Hungary), with four animals imaged simultaneously. CT images were used for attenuation correction and anatomical referencing.
The radiotracer candidates were diluted in 200–300 µL sterile 0.9% NaCl (and up to 2% EtOH, pH 6–7) and intravenously delivered over 30 s through a lateral tail vein catheter. PET acquisition (2 h p.i.) was started simultaneously with the administration. Injected activities were between 5 and 12 MBq (with molar activities 5–18 GBq/µmol). If animals were subjected to an additional scan later, the minimum time in between was > 3 days to allow decay and full metabolization.
The acquired three-dimensional list mode data were sorted and binned within a 400–600 keV energy window, forming 35 time frames (15 × 10 s, 5 × 30 s, 5 × 60 s, 4 × 300 s, 3 × 600 s, 3 × 1200 s). Reconstruction was performed with Mediso’s Tera-Tomo™ 3D algorithm, with a voxel size of 0.4 mm and corrections for decay, scatter, and attenuation. The images were subjected to post-processing and analysis using Rover software (ABX GmbH, Radeberg, Germany), and are shown as maximum intensity projections (MIPs) at the specified timepoint and scaling.
Three-dimensional volumes of interest were defined using fixed thresholding at 35–40% of the maximum measured intensity. Standardized uptake values (SUV = [MBq detected activity/mL tissue]/[MBq injected activity/g body weight], in mL/g) were then calculated within the selected volumes of interest, e.g. PD-L1 and mock tumors, as well as other relevant and metabolizing organs.

T1 sequence (Q9NZQ7 19-290): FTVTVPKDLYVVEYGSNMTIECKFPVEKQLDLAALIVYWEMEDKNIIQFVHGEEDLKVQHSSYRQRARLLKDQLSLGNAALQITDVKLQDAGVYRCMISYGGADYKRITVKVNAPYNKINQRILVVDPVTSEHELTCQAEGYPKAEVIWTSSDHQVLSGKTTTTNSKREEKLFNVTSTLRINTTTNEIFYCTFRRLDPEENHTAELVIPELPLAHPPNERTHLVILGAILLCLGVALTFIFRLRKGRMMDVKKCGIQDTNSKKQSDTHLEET
T2 sequence (Q9NZQ7 19-290): as above

| SMILES | radiotracer remaining intact [1] | Ki [2] [nM] | real-time radioligand binding, bound radioactivity over time [3] | bone uptake (sign of defluorination) [4] | excretion route [4] | target-specific tumor uptake, PC3 PD-L1 versus PC3 mock [4] | SUVmax PC3 PD-L1 tumor [4] | SUVmax PC3 mock tumor [4] | Uptake (SUVmean) Bone (spine) [4] | Uptake (SUVmean) Gall bladder [4] | Uptake (SUVmean) Heart [4] | Uptake (SUVmean) Liver [4] | Uptake (SUVmean) PC3 PD-L1 tumor [4] | Uptake (SUVmean) PC3 mock tumor [4] | Uptake (SUVmean) Small intestine [4] | transition from liver and gall bladder into the intestine [4] [min] |
| --- | --- | --- | --- | --- | --- | --- | --- | --- | --- | --- | --- | --- | --- | --- | --- | --- |
| Cc1c(COc2cc(OCc3cncc(S(C)(=O)=O)c3)c(CN(C)C(=O)[C@H](CS(=O)(=O)O)NC(=O)[C@H](CS(=O)(=O)O)NC(=O)CCP(=O)(O)O)cc2Cl)cccc1-c1cccc(OCc2cn(CCOCCOCC[18F])nn2)c1C [[^18F]F-3] | up to 99% | 475 | almost no binding takes place and no | lacked a discernible bone uptake | exclusively excreted via the hepatobiliary route | marked absence of target-specific uptake | 0.30 | 0.34 | 0.13 | 150.54 | 0.20 | 0.70 | 0.17 | 0.17 | 105.54 | 10 to 15 |
| Cc1c(COc2cc(OCc3cncc(S(C)(=O)=O)c3)c(CN(C)C(=O)[C@H](CS(=O)(=O)O)NC(=O)[C@H](CS(=O)(=O)O)NC(=O)CCP(=O)(O)O)cc2Cl)cccc1-c1cccc(OCc2cn([C@@H]3O[C@H](CF)[C@@H](O)[C@H](O)[C@H]3O)nn2)c1C [Compound 2, (R)−3-((5-Chloro-4-((3'-((1-((2R,3R,4S,5S,6S)−6-(fluoromethyl)−3,4,5-trihydroxytetrahydro-2H-pyran-2-yl)−1H-1,2,3-triazol-4-yl)methoxy)−2,2'-dimethyl-[1,1'-biphenyl]−3-yl)methoxy)−2-((5-(methylsulfonyl)pyridin-3-yl)methoxy)benzyl)(methyl)amino)−3-oxo-2-((R)−2-(3-phosphonopropanamido)−3-sulfopropanamido)propane-1-sulfonic acid] |  | 189 |  |  |  |  |  |  |  |  |  |  |  |  |  |  |
| Cc1c(COc2cc(OCc3cncc(S(C)(=O)=O)c3)c(CN(C)C(=O)[C@H](CS(=O)(=O)O)NC(=O)[C@H](CS(=O)(=O)O)NC(=O)CCP(=O)(O)O)cc2Cl)cccc1-c1cccc(OCc2cn(CCOCCOCCF)nn2)c1C [Compound 3, (R)−3-((5-Chloro-4-((3'-((1-(2-(2-(2-fluoroethoxy)ethoxy)ethyl)−1H-1,2,3-triazol-4-yl)methoxy)−2,2'-dimethyl-[1,1'-biphenyl]−3-yl)methoxy)−2-((5-(methylsulfonyl)pyridin-3-yl)methoxy)benzyl)(methyl)amino)−3-oxo-2-((R)−2-(3-phosphonopropanamido)−3-sulfopropanamido)propane-1-sulfonic acid] |  | 475 |  |  |  |  |  |  |  |  |  |  |  |  |  |  |
| Cc1c(COc2cc(OCc3cncc(S(C)(=O)=O)c3)c(CN(C)C(=O)[C@H](CS(=O)(=O)O)NC(=O)[C@H](CS(=O)(=O)O)NC(=O)CCP(=O)(O)O)cc2Cl)cccc1-c1cccc(OCc2cn([C@@H]3O[C@H](C[18F])[C@@H](O)[C@H](O)[C@H]3O)nn2)c1C [[^18F]F-2] | up to 99% | 189 |  | lacked a discernible bone uptake | exclusively excreted via the hepatobiliary route | marked absence of target-specific uptake | 0.66 | 0.77 | 0.25 | 46.45 | 0.86 | 1.61 | 0.34 | 0.39 | 114.55 | 10 to 15 |
